Assay results taken from ChEMBL document CHEMBL5150074, “Structure-Based Design of a Dual-Targeted Covalent Inhibitor Against Papain-like and Main Proteases of SARS-CoV-2” (J Med Chem, 2022).
pIC50, pKi: −log10 of the molar value. The source made the active and inactive calls. No cut-off for these calls is given here.

Columns and labels:
[1] = target: Replicase polyprotein 1ab (Severe acute respiratory syndrome coronavirus 2) (UniProt P0DTD1); test: Inhibition of SARS-CoV-2 PLpro expressed in Escherichia coli BL21(DE3) using CBZ-RLRGG-AMC as substrate at 5 uM incubated for 30 mins followed by substrate addition by FRET assay
[2] = target: T1, Replicase polyprotein 1ab (Severe acute respiratory syndrome coronavirus 2, UniProt P0DTD1); test: Inhibition of SARS-CoV-2 PLpro
[3] = target: T1, Replicase polyprotein 1ab; test: Inhibition of SARS-CoV-2 MPro expressed in Escherichia coli BL21(DE3) using Dabcyl-KLSAVLQSGERKM-Edans as substrate incubated for 30 mins followed by substrate addition by FRET assay
[4] = Acute toxicity in Sprague-Dawley rat assessed as reduction in body weight at upto 300 mg/kg, po administered via gavage for 4 weeks followed by recovery for 4 weeks; type: organism-based; conditions: in vivo, 1344 h, time 8 weeks
[5] = Acute toxicity in overnight fasted Kunming mouse assessed as toxic signs at 1050 mg/kg, iv measured after 15 days; type: organism-based; conditions: in vivo, 360 h, time 15 day
[6] = Acute toxicity in Sprague-Dawley rat assessed as cellular swelling in hepatocytes at 300 mg/kg, po administered via gavage for 4 weeks followed by recovery for 4 weeks; type: organism-based; conditions: in vivo, 1344 h, time 8 weeks
[7] = Acute toxicity in iv dosed overnight fasted Kunming mouse assessed as maximum tolerated dose measured after 15 days; type: organism-based; conditions: in vivo, time 15 day
[8] = Acute toxicity in Sprague-Dawley rat assessed as cellular swelling in hepatocytes at 300 mg/kg, po administered via gavage for 4 weeks; type: organism-based; conditions: in vivo, 672 h
[9] = Acute toxicity in iv dosed overnight fasted Kunming mouse assessed as minimum lethal dose measured after 15 days; type: organism-based; conditions: in vivo, 360 h, time 15 day
SARS-CoV-2 [10] = test: Antiviral activity against SARS-CoV-2 infected in Vero E6 cells assessed as reduction in viral nucleoprotein levels at 5 uM pretreated with Vero E6 cells for 1 hr followed by viral infection and further incubated for 1 followed by compound washout and measured after 48 hrs by Hoechst 33258 staining based fluorescence microscopy analysis; type: functional, organism-based; conditions: Severe acute respiratory syndrome coronavirus 2, time 2.0 hrs
[11] = Acute toxicity in overnight fasted Kunming mouse assessed as reduction in body weight at 1049 to 4000 mg/kg, iv measured after 15 days; type: organism-based; conditions: in vivo, 360 h, dose 1049-4000 mg/kg, time 15 day
[12] = target: Replicase polyprotein 1ab (Severe acute respiratory syndrome coronavirus 2) (UniProt P0DTD1); test: Covalent binding affinity to Cys111 residue of SARS-CoV-2 PLpro expressed in Escherichia coli BL21(DE3) assessed as mass shift at 3 to 15 uM incubated for 4 hrs followed by trypsin digestion by mass spectrometry analysis; conditions: dose 3-15 µM
[13] = target: Replicase polyprotein 1ab (Severe acute respiratory syndrome coronavirus 2) (UniProt P0DTD1); test: Inhibition of SARS-CoV-2 MPro expressed in Escherichia coli BL21(DE3) using Dabcyl-KLSAVLQSGERKM-Edans as substrate assessed as inactivation constant measured for 30 mins by fluorimetry based microplate reader analysis
[14] = target: Replicase polyprotein 1ab (Severe acute respiratory syndrome coronavirus 2) (UniProt P0DTD1); test: Covalent binding affinity to Cys145 residue of SARS-CoV-2 MPro expressed in Escherichia coli BL21(DE3) assessed as trypsin digestion mediated mass shift by mass spectrometry analysis
[15] = target: T1, Replicase polyprotein 1ab; test: Inhibition of SARS-CoV-2 MPro expressed in Escherichia coli BL21(DE3) using Dabcyl-KLSAVLQSGERKM-Edans as substrate assessed as inhibition constant measured for 30 mins by fluorimetry based microplate reader analysis
[16] = target: Replicase polyprotein 1ab (Severe acute respiratory syndrome coronavirus 2) (UniProt P0DTD1); test: Binding affinity to SARS-CoV-2 PLpro expressed in Escherichia coli BL21(DE3) assessed as mass shift at 30 uM incubated for 4 hrs by mass spectrometry analysis
Vero C1008 = test: Cytotoxicity against African green monkey Vero E6 cells infected with SARS-CoV-2 assessed as reduction in cell viability at 15 uM measured after 48 hrs by CCK-8 assay; type: toxicity, cell-based; conditions: chlorocebus sabaeus, vero c1008, 48 h
[17] = Acute toxicity in overnight fasted Kunming mouse assessed as signs of abnormality at 1310 mg/kg, iv measured after 15 days; type: organism-based; conditions: in vivo, 360 h, time 15 day
Procathepsin L [18] = target: T2, Procathepsin L (Homo sapiens, UniProt P07711); test: Irreversible inhibition of human Cathepsin L using Z-Leu-Arg-AMC as substrate at 300 nM incubated for 5 hrs followed by 100 fold dilution and incubated for 5 min and further incubated with substrate by fluorescence based analysis; conditions: time 305.0 min
Target sequence in this assay (P07711 114-333 limits assumed): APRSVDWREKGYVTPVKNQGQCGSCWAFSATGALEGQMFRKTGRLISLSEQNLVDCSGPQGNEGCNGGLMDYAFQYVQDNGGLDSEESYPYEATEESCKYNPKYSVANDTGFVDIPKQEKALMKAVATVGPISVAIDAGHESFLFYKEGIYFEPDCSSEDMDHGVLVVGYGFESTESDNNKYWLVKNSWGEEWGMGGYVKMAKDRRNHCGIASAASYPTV

SARS-CoV-2 [19] = test: Antiviral activity against SARS-CoV-2 infected in Vero E6 cells assessed as reduction in viral nucleoprotein expression measured after 48 hrs by qRT-PCR analysis; type: functional, organism-based; conditions: Severe acute respiratory syndrome coronavirus 2, Vero C1008, 48 h
[20] = Toxicity in overnight fasted Kunming mouse assessed as animal death at 400 mg/kg, iv measured after 15 days; type: organism-based; conditions: in vivo, 360 h, time 15 day
[21] = Acute toxicity in Sprague-Dawley rat assessed as effect on food consumption at upto 300 mg/kg, po administered via gavage for 4 weeks followed by recovery for 4 weeks; type: organism-based; conditions: in vivo, 1344 h, time 8 weeks
[22] = target: Replicase polyprotein 1ab (Severe acute respiratory syndrome coronavirus 2) (UniProt P0DTD1); test: Inhibition of SARS-CoV-2 MPro expressed in Escherichia coli BL21(DE3) using Dabcyl-KLSAVLQSGERKM-Edans as substrate assessed as Kinact/Ki measured for 30 mins by fluorimetry based microplate reader analysis
[23] = Solubility of compound in saline at higher dose; type: physicochemical; conditions: buffer
[24] = target: T1, Replicase polyprotein 1ab; test: Inhibition of SARS-CoV-2 PLpro expressed in Escherichia coli BL21(DE3) using CBZ-RLRGG-AMC as substrate assessed as inhibition constant measured for 30 mins by fluorimetry based microplate reader analysis
[25] = target: Replicase polyprotein 1ab (Severe acute respiratory syndrome coronavirus 2) (UniProt P0DTD1); test: Inhibition of SARS-CoV-2 PLpro expressed in Escherichia coli BL21(DE3) using CBZ-RLRGG-AMC as substrate assessed as Kinact/Ki measured for 30 mins by fluorimetry based microplate reader analysis
[26] = Acute toxicity in overnight fasted Kunming mouse assessed as animal death at 1050 mg/kg, iv measured after 15 days; type: organism-based; conditions: in vivo, 360 h, time 15 day
Procathepsin L [27] = target: T2, Procathepsin L; test: Inhibition of human Cathepsin L using Z-Leu-Arg-AMC as substrate incubated for 30 mins followed by substrate addition by fluorescence based analysis
Target sequence in this assay (P07711 whole entry): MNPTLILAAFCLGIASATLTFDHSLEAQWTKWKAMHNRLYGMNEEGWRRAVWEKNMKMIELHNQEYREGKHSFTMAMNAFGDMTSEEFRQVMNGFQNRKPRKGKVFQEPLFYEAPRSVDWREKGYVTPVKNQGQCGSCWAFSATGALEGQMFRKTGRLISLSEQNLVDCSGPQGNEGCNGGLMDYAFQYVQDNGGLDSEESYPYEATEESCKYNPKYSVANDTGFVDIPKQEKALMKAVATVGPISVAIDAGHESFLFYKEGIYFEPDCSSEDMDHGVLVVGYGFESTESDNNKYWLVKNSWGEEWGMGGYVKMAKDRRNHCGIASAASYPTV

[28] = target: T1, Replicase polyprotein 1ab; test: Inhibition of SARS-CoV-2 PLpro expressed in Escherichia coli BL21(DE3) using CBZ-RLRGG-AMC as substrate incubated for 30 mins followed by substrate addition by FRET assay
[29] = target: Replicase polyprotein 1ab (Severe acute respiratory syndrome coronavirus 2) (UniProt P0DTD1); test: Binding affinity to SARS-CoV-2 MPro expressed in Escherichia coli BL21(DE3) assessed as mass shift at 15 uM incubated for 4 hrs by mass spectrometry analysis
Cathepsin B [30] = target: T3, Cathepsin B (Homo sapiens, UniProt P07858); test: Reversible inhibition of His-tagged recombinant human Cathepsin B expressed in HEK293 cells using Z-Leu-Arg-AMC as substrate at 120 nM incubated for 2.5 hrs followed by 100 fold dilution and incubated for 5 min and further incubated with substrate by fluorescence based analysis; conditions: time 155.0 min
[31] = target: Serine/threonine-protein kinase pim-1 (Homo sapiens) (UniProt P11309); test: Inhibition of human PIM1 at 1 uM by DiscoverX KINOMEscan assay relative to control
[32] = target: Replicase polyprotein 1ab (Severe acute respiratory syndrome coronavirus 2) (UniProt P0DTD1); test: Inhibition of SARS-CoV-2 PLpro expressed in Escherichia coli BL21(DE3) using CBZ-RLRGG-AMC as substrate assessed as inactivation constant measured for 30 mins by fluorimetry based microplate reader analysis
[33] = Drug metabolism in normal saline assessed as conversion of closed form to open form by measuring rate constant at equilibrium at 2 mg/ml measured at 5 hrs by RP-HPLC analysis; type: ADME; conditions: buffer
[34] = target: Replicase polyprotein 1ab (Severe acute respiratory syndrome coronavirus 2) (UniProt P0DTD1); test: Inhibition of SARS-CoV-2 MPro expressed in Escherichia coli BL21(DE3) using Dabcyl-KLSAVLQSGERKM-Edans as substrate at 5 uM incubated for 30 mins followed by substrate addition by FRET assay
SARS-CoV-2 [35] = test: Antiviral activity against SARS-CoV-2 infected in Vero E6 cells assessed as reduction in viral RdRP RNA levels at 15 uM measured after 48 hrs by qRT-PCR analysis; type: functional, Severe acute respiratory syndrome coronavirus 2; design: scale not given: the % may be the effect or the level left
[36] = target: Serine/threonine-protein kinase PAK 2 (Homo sapiens) (UniProt Q13177); test: Inhibition of human PAK2 at 1 uM by DiscoverX KINOMEscan assay relative to control
Cathepsin B [37] = target: T3, Cathepsin B; test: Inhibition of His-tagged recombinant human Cathepsin B expressed in HEK293 cells using Z-Leu-Arg-AMC as substrate incubated for 30 mins followed by substrate addition by fluorescence based analysis
[38] = target: T1, Replicase polyprotein 1ab; test: Inhibition of SARS-CoV2 main protease

Serine/threonine-protein kinase PAK 2 (Homo sapiens), sequence (Q13177 whole entry): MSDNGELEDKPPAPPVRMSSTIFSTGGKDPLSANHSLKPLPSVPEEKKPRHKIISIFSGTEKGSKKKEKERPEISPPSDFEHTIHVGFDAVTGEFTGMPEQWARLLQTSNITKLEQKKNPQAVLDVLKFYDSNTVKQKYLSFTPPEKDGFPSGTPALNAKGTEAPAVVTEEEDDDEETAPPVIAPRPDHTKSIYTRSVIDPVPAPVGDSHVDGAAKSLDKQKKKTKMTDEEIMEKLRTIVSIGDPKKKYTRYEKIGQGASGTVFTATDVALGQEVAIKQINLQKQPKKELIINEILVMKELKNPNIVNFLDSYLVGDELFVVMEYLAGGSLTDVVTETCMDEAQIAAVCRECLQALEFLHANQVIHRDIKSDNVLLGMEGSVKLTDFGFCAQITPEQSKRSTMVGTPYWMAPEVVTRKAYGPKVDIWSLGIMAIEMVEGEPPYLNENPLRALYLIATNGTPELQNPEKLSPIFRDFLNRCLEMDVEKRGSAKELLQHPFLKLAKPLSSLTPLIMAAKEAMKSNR
Serine/threonine-protein kinase pim-1 (Homo sapiens), sequence (P11309 whole entry, looked up): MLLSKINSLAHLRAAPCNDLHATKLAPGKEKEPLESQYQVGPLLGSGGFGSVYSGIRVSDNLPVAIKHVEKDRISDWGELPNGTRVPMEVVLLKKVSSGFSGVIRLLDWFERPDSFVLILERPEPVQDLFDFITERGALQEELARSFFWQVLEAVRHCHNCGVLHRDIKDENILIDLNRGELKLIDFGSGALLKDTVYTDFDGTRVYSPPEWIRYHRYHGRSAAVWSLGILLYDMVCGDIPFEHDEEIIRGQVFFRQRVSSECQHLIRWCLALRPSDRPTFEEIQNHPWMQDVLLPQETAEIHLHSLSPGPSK

SMILES: CNS(=O)(=O)c1cccc2c1C(=O)C(Nc1ccccc1)=CC2=O
- inhibition [1]: Active

SMILES: CC1=NC2C(=O)C(Nc3ccc(C)cc3)=CC(=O)C2S1 (stereo unspecified)
- pIC50 [2]: 6.41

SMILES: Cl.O=C1C=C(Nc2ccccc2N2CCNCC2)C2=NS(=O)(=O)c3cccc1c32
- pIC50 [3]: 6.92
- Activity [4]: Non-Toxic
- Activity [5]: Non-Toxic
- Activity [6]: Non-Toxic
- MTD at 360 h [7]: 1000 mg/kg
- Activity [8]: Toxic
- MLC [9]: 1300 mg/kg
- Activity (SARS-CoV-2 [10]): Active
- Activity [11]: Non-Toxic
- Activity [12]: Active
- Kinact [13]: 0.0048 s⁻¹
- Activity [14]: Active
- pKi [15]: 5.15
- Activity [16]: 410 Da
- Activity (Vero C1008): Non-Toxic
- Activity [17]: Non-Toxic
- inhibition (Procathepsin L [18]): Active
- pIC50 (SARS-CoV-2 [19]): 5.41
- Activity [20]: Non-Toxic
- Activity [21]: Non-Toxic
- Ratio [22]: 710 M⁻¹ s⁻¹
- solubility [23]: Insoluble
- pKi [24]: 4.80
- Ratio [25]: 500 M⁻¹ s⁻¹
- Activity [26]: Non-Toxic
- pIC50 (Procathepsin L [27]): 5.66
- pIC50 [28]: 6.00
- Activity [29]: 392 Da
- inhibition (Cathepsin B [30]): Active
- inhibition [31]: 35%
- Kinact [32]: 0.0081 s⁻¹
- Ke [33]: 0.012 min⁻¹
- inhibition [34]: Active
- Activity (SARS-CoV-2 [35]): 99.9%
- inhibition [36]: 10%
- inhibition [1]: Active
- pIC50 (Cathepsin B [37]): 5.06

SMILES: CC(C)C[C@H](NC(=O)[C@@H](NC(=O)OCc1ccccc1)C(C)C)C(=O)N[C@@H](C[C@@H]1CCNC1=O)C(=O)c1nc2ccccc2s1
- pKi [38]: 7.84

SMILES: COC(=O)/C=C/C(=O)NNC(=O)/C=C/c1ccccc1C(=O)N[C@H](C)c1cccc2ccccc12
- pIC50 [2]: 7.03
